According to US5478929A, “Bioconversion products of 27-hydroxy avermectin” (Merck & Co., Inc., priority 1994, dated 1995):

Assays:
Format in all cases: in vivo
[1] = system: Haemonchus contortus; test: Anthelmintic activity against Haemonchus contortus; settings: for Activity profile, Haemonchus Contortus: Table 4
[2] = system: Lucilla larva; test: Insecticidal activity, Lucilla larva; settings: for Insecticidal activity, Lucilla larva 48 hrs: listed as 27-OH ivermectins Isomer B; on all read-outs here: key: A*: highly active; M: moderately active; I: inactive
[3] = system: Trichostrongylus sigmodontis; test: Anthelmintic activity against Trichostrongylus sigmodontis (large bowel worm); settings: for Anthelmintic activity, Trichostrongylus sigmodontis: Table 2; for Activity profile, Trichostrongulus sigmodontis: Table 4; on Anthelmintic activity, Trichostrongylus sigmodontis: key: A*: highly active; M: moderately active; I: inactive
Source text: The anthelmintic activity of the instant compound may be determined by orally administering via the feed, a sample of the individual compound, a mixture of such compound, a concentrated extract, and the like to a mouse which had been infected 3 days earlier with a gastrointestinal parasite. At 11, 12 and 13 days after the initiation of the medication, the feces of the mouse are examined for eggs, and on the next day the mouse is sacrificed and the number of worms present in the proximal portion of the small intestine are determined. An active compound is observed when there is a significant reduction of egg and worm counts when compared to infected, unmedicated controls.

[4] = system: Trichostrongylus colubriformis; test: Anthelmintic activity against Trichostrongylus colubriformis; settings: Table 4

CO[C@H]1C[C@H](O[C@H]2[C@H](C)O[C@@H](O[C@@H]3/C(C)=C/C[C@@H]4C[C@@H](C[C@]5(CC[C@H](C)[C@@H]([C@@H](C)C(C)O)O5)O4)OC(=O)[C@@H]4C=C(C)[C@@H](O)[C@H]5OC/C(=C\C=C\[C@@H]3C)[C@]54O)C[C@@H]2OC)O[C@@H](C)[C@@H]1O (single isomer, unassigned) [27-OH-22,23 dihydro B1a isomer A, 27-OH 22,23 dihydroavermectin B la]
I: Insecticidal activity, Lucilla larva 24 hrs ([2]; 0.5 ppm) | Insecticidal activity, Lucilla larva 24 hrs ([2]; 1 ppm) | Anthelmintic activity, Trichostrongylus sigmodontis ([3]; 0.0625 mg/kg) | Activity profile, Trichostrongulus sigmodontis ([3]; 0.0625 mg/kg)
A (85-100% effective): Activity profile, Haemonchus Contortus ([1]; 0.0625 mg/kg) | Activity profile, Haemonchus Contortus ([1]; 0.125 mg/kg) | Activity profile, Haemonchus Contortus ([1]; 0.25 mg/kg) | Activity profile, Trichostrongulus sigmodontis ([3]; 0.125 mg/kg) | Activity profile, Trichostrongulus sigmodontis ([3]; 0.25 mg/kg) | Activity profile, Trichostrongulus colubriformis ([4]; 0.0625 mg/kg) | Activity profile, Trichostrongulus colubriformis ([4]; 0.125 mg/kg) | Activity profile, Trichostrongulus colubriformis ([4]; 0.25 mg/kg)

4"-O-glucosyl, 27-OH-22,23 dihydro B 1 a isomer B [4"-O-glucosyl, 27-OH-22,23 dihydro B1a isomer B]
MA (60-85% effective): Activity profile, Haemonchus Contortus ([1]; 0.125 mg/kg) | Activity profile, Trichostrongulus colubriformis ([4]; 0.125 mg/kg)
SLA (35-60% effective): Activity profile, Trichostrongulus colubriformis ([4]; 0.0625 mg/kg)
A (85-100% effective): Activity profile, Haemonchus Contortus ([1]; 0.25 mg/kg) | Activity profile, Trichostrongulus sigmodontis ([3]; 0.0625 mg/kg) | Activity profile, Trichostrongulus sigmodontis ([3]; 0.125 mg/kg) | Activity profile, Trichostrongulus sigmodontis ([3]; 0.25 mg/kg) | Activity profile, Trichostrongulus colubriformis ([4]; 0.25 mg/kg)
I: Activity profile, Haemonchus Contortus ([1]; 0.0625 mg/kg)

CO[C@H]1C[C@H](O[C@H]2[C@H](C)O[C@@H](O[C@@H]3/C(C)=C/C[C@@H]4C[C@@H](C[C@]5(CC[C@H](C)[C@@H]([C@@H](C)C(C)O)O5)O4)OC(=O)[C@@H]4C=C(C)[C@@H](O)[C@H]5OC/C(=C\C=C\[C@@H]3C)[C@]54O)C[C@@H]2OC)O[C@@H](C)[C@@H]1O (single isomer, unassigned) [27-OH-22,23 dihydro B1a isomer B, 27-OH 22,23 dihydroavermectin B la]
A (85-100% effective): Activity profile, Haemonchus Contortus ([1]; 0.125 mg/kg) | Activity profile, Haemonchus Contortus ([1]; 0.25 mg/kg) | Activity profile, Trichostrongulus colubriformis ([4]; 0.125 mg/kg) | Activity profile, Trichostrongulus colubriformis ([4]; 0.25 mg/kg)
I: Anthelmintic activity, Haemonchus contortus ([1]; Table 2, 0.0625 mg/kg, listed as 27-OH ivermectins Isomer B) | Insecticidal activity, Lucilla larva 24 hrs ([2]; 0.5 ppm) | Insecticidal activity, Lucilla larva 24 hrs ([2]; 1 ppm) | Insecticidal activity, Lucilla larva 48 hrs ([2]; 0.5 ppm) | Insecticidal activity, Lucilla larva 48 hrs ([2]; 1 ppm) | Anthelmintic activity, Trichostrongylus sigmodontis ([3]; 0.0625 mg/kg) | Anthelmintic activity, Trichostrongylus sigmodontis ([3]; 0.125 mg/kg, listed as 27-OH ivermectins Isomer B) | Anthelmintic activity, Trichostrongylus sigmodontis ([3]; 0.25 mg/kg, listed as 27-OH ivermectins Isomer B) | Activity profile, Trichostrongulus sigmodontis ([3]; 0.0625 mg/kg) | Activity profile, Trichostrongulus sigmodontis ([3]; 0.125 mg/kg) | Activity profile, Trichostrongulus sigmodontis ([3]; 0.25 mg/kg) | Activity profile, Trichostrongulus colubriformis ([4]; 0.0625 mg/kg)
MA (60-85% effective): Activity profile, Haemonchus Contortus ([1]; 0.0625 mg/kg)

CO[C@H]1C[C@H](O[C@H]2[C@H](C)O[C@@H](O[C@@H]3/C(C)=C/C[C@@H]4C[C@@H](C[C@]5(C=C[C@H](C)[C@@H]([C@@H](C)C(C)O)O5)O4)OC(=O)[C@@H]4C=C(C)[C@@H](O)[C@H]5OC/C(=C\C=C\[C@@H]3C)[C@]54O)C[C@@H]2OC)O[C@@H](C)[C@@H]1O (single isomer, unassigned) [27-OHB1a isomer B, 27-OHB1a]
A (85-100% effective): Activity profile, Haemonchus Contortus ([1]; 0.0625 mg/kg) | Activity profile, Haemonchus Contortus ([1]; 0.125 mg/kg) | Activity profile, Haemonchus Contortus ([1]; 0.25 mg/kg) | Activity profile, Trichostrongulus colubriformis ([4]; 0.0625 mg/kg) | Activity profile, Trichostrongulus colubriformis ([4]; 0.125 mg/kg) | Activity profile, Trichostrongulus colubriformis ([4]; 0.25 mg/kg)
SLA (35-60% effective): Activity profile, Trichostrongulus sigmodontis ([3]; 0.25 mg/kg)

CC[C@H](C)[C@H]1O[C@]2(CC[C@@H]1C)C[C@@H]1C[C@@H](C/C=C(\C)[C@@H](O[C@H]3C[C@H](OC)[C@@H](O[C@H]4C[C@H](OC)[C@@H](O)[C@H](C)O4)[C@H](C)O3)[C@@H](C)/C=C/C=C3\CO[C@@H]4[C@H](O)C(C)=C[C@@H](C(=O)O1)[C@]34O)O2 [22,23 dihydro 8 B1a, 22,23 dihydro B1a, reference compound]
A (85-100% effective): Activity profile, Haemonchus Contortus ([1]; 0.0625 mg/kg) | Activity profile, Haemonchus Contortus ([1]; 0.125 mg/kg) | Activity profile, Haemonchus Contortus ([1]; 0.25 mg/kg) | Activity profile, Trichostrongulus sigmodontis ([3]; 0.125 mg/kg) | Activity profile, Trichostrongulus sigmodontis ([3]; 0.25 mg/kg) | Activity profile, Trichostrongulus colubriformis ([4]; 0.0625 mg/kg) | Activity profile, Trichostrongulus colubriformis ([4]; 0.125 mg/kg) | Activity profile, Trichostrongulus colubriformis ([4]; 0.25 mg/kg)
I: Activity profile, Trichostrongulus sigmodontis ([3]; 0.0625 mg/kg)

CC[C@H](C)[C@H]1O[C@]2(C=C[C@@H]1C)C[C@@H]1C[C@@H](C/C=C(\C)[C@@H](O[C@H]3C[C@H](OC)[C@@H](O[C@H]4C[C@H](OC)[C@@H](O)[C@H](C)O4)[C@H](C)O3)[C@@H](C)/C=C/C=C3\CO[C@@H]4[C@H](O)C(C)=C[C@@H](C(=O)O1)[C@]34O)O2 [B1a, avermectin B1a, reference compound]
SLA (35-60% effective): Activity profile, Trichostrongulus sigmodontis ([3]; 0.0625 mg/kg)
A (85-100% effective): Activity profile, Haemonchus Contortus ([1]; 0.0625 mg/kg) | Activity profile, Haemonchus Contortus ([1]; 0.125 mg/kg) | Activity profile, Haemonchus Contortus ([1]; 0.25 mg/kg) | Activity profile, Trichostrongulus sigmodontis ([3]; 0.125 mg/kg) | Activity profile, Trichostrongulus sigmodontis ([3]; 0.25 mg/kg) | Activity profile, Trichostrongulus colubriformis ([4]; 0.0625 mg/kg) | Activity profile, Trichostrongulus colubriformis ([4]; 0.125 mg/kg) | Activity profile, Trichostrongulus colubriformis ([4]; 0.25 mg/kg)

CC1=C[C@H]2C(=O)O[C@H]3C[C@@H](C/C=C(\C)[C@@H](O)[C@@H](C)/C=C/C=C4\CO[C@H]([C@@H]1O)[C@@]42O)O[C@@]1(CC[C@H](C)[C@@H]([C@@H](C)C(C)O)O1)C3 (single isomer, unassigned) [27-OH-22,23 dihydro B1a aglycone isomer B, 27-hydroxy ivermectin aglycone]
I: Activity profile, Haemonchus Contortus ([1]; 1.00 mg/kg) | Activity profile, Trichostrongulus sigmodontis ([3]; 1.00 mg/kg) | Activity profile, Trichostrongulus colubriformis ([4]; 1.00 mg/kg)

CC1=C[C@H]2C(=O)O[C@H]3C[C@@H](C/C=C(\C)[C@@H](O)[C@@H](C)/C=C/C=C4\CO[C@H]([C@@H]1O)[C@@]42O)O[C@@]1(CC[C@H](C)[C@@H]([C@@H](C)C(C)O)O1)C3 (single isomer, unassigned) [27-OH-22,23 dihydro B1a aglycone isomer A, 27-hydroxy ivermectin aglycone]
I: Activity profile, Haemonchus Contortus ([1]; 1.00 mg/kg) | Activity profile, Trichostrongulus sigmodontis ([3]; 1.00 mg/kg) | Activity profile, Trichostrongulus colubriformis ([4]; 1.00 mg/kg)

4"-O-glucosyl, 27-OH B1a [4"-O-glucosyl, 27-OH B1a isomer B]
I: Activity profile, Haemonchus Contortus ([1]; 0.0625 mg/kg) | Activity profile, Trichostrongulus colubriformis ([4]; 0.0625 mg/kg)
A (85-100% effective): Activity profile, Haemonchus Contortus ([1]; 0.125 mg/kg) | Activity profile, Haemonchus Contortus ([1]; 0.25 mg/kg) | Activity profile, Trichostrongulus sigmodontis ([3]; 0.0625 mg/kg) | Activity profile, Trichostrongulus sigmodontis ([3]; 0.125 mg/kg) | Activity profile, Trichostrongulus sigmodontis ([3]; 0.25 mg/kg) | Activity profile, Trichostrongulus colubriformis ([4]; 0.125 mg/kg) | Activity profile, Trichostrongulus colubriformis ([4]; 0.25 mg/kg)

4"-O-glucosyl, 27-OH -22,23 dihydro B1a isomer A [4"-O-glucosyl, 27-OH-22,23 dihydro B1a isomer A]
SLA (35-60% effective): Activity profile, Trichostrongulus colubriformis ([4]; 0.0625 mg/kg)
MA (60-85% effective): Activity profile, Haemonchus Contortus ([1]; 0.0625 mg/kg)
A (85-100% effective): Activity profile, Haemonchus Contortus ([1]; 0.125 mg/kg) | Activity profile, Haemonchus Contortus ([1]; 0.25 mg/kg) | Activity profile, Trichostrongulus sigmodontis ([3]; 0.0625 mg/kg) | Activity profile, Trichostrongulus sigmodontis ([3]; 0.125 mg/kg) | Activity profile, Trichostrongulus sigmodontis ([3]; 0.25 mg/kg) | Activity profile, Trichostrongulus colubriformis ([4]; 0.125 mg/kg) | Activity profile, Trichostrongulus colubriformis ([4]; 0.25 mg/kg)
